Data as given in ChEMBL document CHEMBL2086263, “Synthesis and SAR studies of 3-allyl-4-prenyloxyaniline amides as potent 15-lipoxygenase inhibitors” (Bioorg Med Chem, 2012).

Experiments:
[1] = Inhibition of soybean 15-lipoxygenase using linoleic acid as substrate incubated for 5 mins prior to substrate addition measured after 7 mins by DMAB-MBTH method; design: species or system Glycine max
[2] = system: Radical scavenging activity; experiment: Antioxidant activity assessed as inhibition of DPPH radical scavenging activity after 30 mins by spectrophotometry; format: functional

Structure (SMILES): C=CCOc1ccc(NC(=O)C23CC4CC(CC(C4)C2)C3)cc1CC=C
- IC50 [1]: 9.8 µM

Structure (SMILES): C=CCOc1ccc(NC(=O)C2CCCCC2)cc1CC=C
- IC50 [1]: 18.5 µM

Structure (SMILES): C=CCOc1ccc(NC(=O)C2CCCC2)cc1CC=C
- IC50 [1]: 58 µM

Structure (SMILES): C=CCOc1ccc(NC(=O)C2CCC2)cc1CC=C
- IC50 [1]: 19.6 µM

Structure (SMILES): C=CCOc1ccc(NC(=O)C2CC2)cc1CC=C
- IC50 [1]: 54.1 µM

Structure (SMILES): C=CCOc1ccc(NC(C)=O)cc1CC=C
- IC50 [1]: 67.8 µM

Structure (SMILES): C=CCc1cc(NC(=O)C23CC4CC(CC(C4)C2)C3)ccc1OC/C=C(\C)CC/C=C(\C)CCC=C(C)C
- IC50 [1]: 0.69 µM
- IC50 [2]: 114 µM

Structure (SMILES): C=CCc1cc(NC(=O)C2CCCCC2)ccc1OC/C=C(\C)CC/C=C(\C)CCC=C(C)C
- IC50 [1]: 5.2 µM
- IC50 [2]: 529 µM

Structure (SMILES): C=CCc1cc(NC(=O)C2CCCC2)ccc1OC/C=C(\C)CC/C=C(\C)CCC=C(C)C
- IC50 [1]: 35.7 µM
- IC50 [2]: 461 µM

Structure (SMILES): C=CCc1cc(NC(=O)C2CCC2)ccc1OC/C=C(\C)CC/C=C(\C)CCC=C(C)C
- IC50 [1]: 2.1 µM
- IC50 [2]: 140 µM

Structure (SMILES): C=CCc1cc(NC(=O)C2CC2)ccc1OC/C=C(\C)CC/C=C(\C)CCC=C(C)C
- IC50 [1]: 16.5 µM
- IC50 [2]: 8.9 µM

Structure (SMILES): C=CCc1cc(NC(C)=O)ccc1OC/C=C(\C)CC/C=C(\C)CCC=C(C)C
- IC50 [1]: 24.8 µM
- IC50 [2]: 225 µM

Structure (SMILES): C=CCc1cc(NC(=O)C23CC4CC(CC(C4)C2)C3)ccc1OC/C=C(\C)CCC=C(C)C
- IC50 [1]: 3.6 µM
- IC50 [2]: 121 µM

Structure (SMILES): C=CCc1cc(NC(=O)C23CC4CC(CC(C4)C2)C3)ccc1OCC=C(C)C
- IC50 [1]: 10.3 µM
- IC50 [2]: 105 µM

Structure (SMILES): Cc1nc(N2CCN(C)CC2)nc2c1Nc1ccccc1S2
- IC50 [1]: 28.2 µM

Structure (SMILES): C=CCOc1ccc(NC(=O)C23CC4CC(CC(C4)C2)C3)cc1
- IC50 [1]: 27.8 µM

Structure (SMILES): O=C(O)/C=C/c1ccc(O)c(O)c1 [CAFFEIC ACID]
- IC50 [1]: 37.1 µM

Structure (SMILES): CC(Cc1ccc(O)c(O)c1)C(C)Cc1ccc(O)c(O)c1 (stereo unspecified) [NORDIHYDROGUAIARETIC ACID]
- IC50 [2]: 6.2 µM
